Assay results from patent publication US8530471B2, “Therapeutic cyclopentane derivatives” (Allergan, Inc., priority 2008, dated 2013).

Assays:
normotensive dogs = experiment: Intraocular pressure (IOP) reduction in normotensive dogs; assay type: in vivo
Description: Compounds such as those described in the above are tested in vivo to measure its ability to reduce intraocular pressure. Compound A is tested in normotensive dogs.
Compound B is tested in normotensive dogs.

[1] = system: laser-induced hypertensive monkeys; experiment: Intraocular pressure (IOP) reduction in laser-induced hypertensive monkeys; assay type: in vivo
[2] = system: lashes and adjacent hairs of patients; experiment: Observation of lashes in glaucoma patients treated in only one eye; assay type: in vivo, human; conditions: glaucoma patient, unilateral treatment
From the text: In the course of treating patients having glaucoma, treatment may only be appropriate in one eye. […] The lash appearance on the lids of the treated eyes would have appeared quite attractive if it represented a bilateral phenomenon. As a result of its asymmetric nature, the long lashes on one side could be construed as disturbing from a cosmetic standpoint. A systemic examination was preformed as a result of the asymmetric phenomenon. It soon became apparent that this altered appearance was not an isolated finding. […] Definite differences could be identified to varying degrees in the lashes and adjacent hairs of all patients who were taking the drug on a unilateral basis for longer than 6 months.
The changes in the lashes were apparent on gross inspection in several patients once attention was focused on the issue. In those with light colored hair and lashes, the differences were only seen easily with the aid of the high magnification and lighting capabilities of the slit lamp biomicroscope. In the course of glaucoma follow-up examination, attention is generally immediately focused on the eye itself. As a result of the high power magnification needed only one eye is seen at a time and the eye is seen at a high enough power that the lashes are not in focus. […]

With `CCCCCC(O)c1ccc([C@@H]2[C@@H](C/C=C\CCCC(=O)OCCO)[C@H](C#N)C[C@H]2O)cc1` (some centres unmarked) [Compound A] the “intraocular pressure (IOP) change from baseline” value (normotensive dogs) was “decreases from baseline” and the “intraocular pressure (IOP) change from baseline” value [1] was “decreases from baseline”.
`CCCCCC(O)c1ccc([C@@H]2[C@@H](C/C=C\CCCC(=O)OCCN3CCOCC3)[C@H](C#N)C[C@H]2O)cc1` (some centres unmarked) [Compound B] was tested, and the “intraocular pressure (IOP) change from baseline” value (normotensive dogs) was “decreases from baseline” and the “intraocular pressure (IOP) change from baseline” value [1] was “decreases from baseline”.
In the case of `CCNC(=O)CCC/C=C\C[C@@H]1[C@@H](/C=C/[C@@H](O)CCc2ccccc2)[C@H](O)C[C@@H]1O` [bimatoprost], the “lash appearance in treated eye versus non-treated eye” value [2] is reported as “longer, thicker, and fuller in the treated eye than in the non-treated eye”.
